From patent publication US9706770B2, “Rodenticide bait comprising difenacoum and method for controlling target rodent pests” (priority 2014, dated 2017)
Like-named read-outs stand apart in the source and are kept apart here.

Tests used:
[1] = Hepatic persistence of trans and cis stereoisomers after a single per os dose of a mixture (Table 1); assay type: in vivo, rat; settings: male Sprague Dawley rats, mixture 56% trans/44% cis, 5.2 mg difenacoum/kg per os on D0, mean of 4 rats
Procedure: On D0 per os tube feeding is performed on male laboratory rats (Sprague Dawley rats, Charles River, Saint germain sur 1′ Arbresle, France) aged 8 weeks and with a body mass of the order of 200 g with a mixture comprising 56% of trans-difenacoum and 44% of cis-difenacoum in an amount of 5.2 mg of difenacoum per kilogram of rat. The rats are kept alive by daily subcutaneous injection of a solution of vitamin K in an amount of 1 U per rat. On D+1, D+3, D+5, D+7, D+10, D+14 and D+21, 4 rats are anaesthetised with isoflurane and then sacrificed, and the livers are removed and frozen until analysed.

Sprague Dawley male rats [2] = assay: Coagulation time (Quick time) after a single per os dose of purified cis- or trans-difenacoum; assay type: in vivo, rat
Procedure: The comparative study of the rodenticidal efficacy of purified trans-difenacoum and purified cis-difenacoum is carried out by administration by means of a stomach tube (per os): • of a solution of cis-difenacoum to a first group of four “Sprague Dawley” male rats weighing between 180 and 220 g, and • of a solution of trans-difenacoum to a second group of four “Sprague Dawley” male rats weighing between 180 and 220 g.
These solutions of cis-difenacoum and trans-difenacoum are obtained by weighing cis-difenacoum or trans-difenacoum and dilution in a mixture formed from 95% vegetable oil and 5% DMSO.
The doses of cis-difenacoum and trans-difenacoum used are 2.6 mg of cis-difenacoum or trans-difenacoum per kilogram of rat. The dose of 2.6 mg of cis-difenacoum and trans-difenacoum per kilogram of rat corresponds to 4 times the median lethal dose (LD50) of difenacoum for rats. The dose of 5.2 mg of cis-difenacoum or trans-difenacoum per kilogram of rat corresponds to 8 times the median lethal dose (LD50) of difenacoum for rats.
3 ml blood samples are taken from the rats anaesthetised with isoflurane in sample tubes containing citrate (3.2%). The tubes are centrifuged at 2,000 g for 10 minutes and the plasma fraction is collected.
The coagulation time (Quick time) of the plasma is analysed by means of the “Neoplastine CI Determination of Prothrombin Time” kit (Diagnostica Stago, Asnière, France) by measurement on a Thrombotimer option 2 plus (Behnk Electronik, Norderstedt, Germany).
The normal value for the coagulation time of untreated rats is 10 to 20 seconds.

[3] = target: T1, recombinant enzyme rVKORC1 (Rattus norvegicus, UniProt Q6TEK4); assay: Inhibition constant of the recombinant enzyme rVKORC1; assay type: biochemical
T1 sequence (Q6TEK4 1-161): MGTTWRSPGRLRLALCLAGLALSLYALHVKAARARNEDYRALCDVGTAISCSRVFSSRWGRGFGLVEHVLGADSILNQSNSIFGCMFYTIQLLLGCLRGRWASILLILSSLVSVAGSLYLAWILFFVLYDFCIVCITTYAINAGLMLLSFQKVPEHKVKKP
Procedure: In addition, the value of the inhibition constant (Kicis=60 nM) of the recombinant enzyme rVKORC1 by cis-difenacoum is similar to the value of the inhibition constant of rVKORC1 by trans-difenacoum (Kitrans=30 nM).

in vivo [4] = assay: in vivo; parameters: species or system rat; settings: male rats, control composition 56% cis/44% trans, 5.2 mg difenacoum/kg per os on D0; for hepatic concentration: from D+3
Procedure: (§1) On D0 a control composition of the prior art comprising a molar proportion of cis-difenacoum of 56% and a molar proportion of trans-difenacoum of 44% is administered per os to seven groups of four male laboratory rats (Sprague Dawley rats, Charles River, Saint germain sur l'Arbresle, France) weighing between 180 and 220 g in an amount of 5.2 mg of difenacoum per kilogram of rat. On D+1, D+3, D+5, D+7, D+10, D+14 and D+21, 4 rats are sacrificed. The livers are removed and weighed. A liquid/solid extraction of difenacoum with acetone is performed. The difenacoum is analysed by HPLC on a C8 (250 mm×10 mm) column kept at 30° C. with a mobile phase formed from 80% acetonitrile and 20% acid water. The flow rate of the mobile phase is kept at 2 ml/min and the trans-difenacoum and cis-difenacoum are detected by spectrophotometric analysis at the wavelength of 258 nm. The trans-difenacoum and cis-difenacoum are quantified by calibration with known amounts of trans-difenacoum and cis-difenacoum. The results are given in FIG. 3, in which the hepatic persistence of trans-difenacoum is represented by solid squares (▪) and the hepatic persistence of cis-difenacoum is represented by open diamonds (⋄).

[5] = assay type: in vivo, rat; settings: for concentration in the liver: D+1
Procedure: as §1
On D+1 the concentration of cis-difenacoum in the liver of the female rats (9.6 μg/g of liver) is essentially equivalent to the concentration of cis-difenacoum in the liver of the male rats (7.3 μg/g of liver). The concentration on D+1 of trans-difenacoum in the liver of the female rats (3.3 μg/g of liver) is greater than the concentration of trans-difenacoum in the liver of the male rats (0.9 μg/g of liver). […] For the same dosage, the hepatic concentrations of trans-difenacoum are thus higher in the female at least up to three days after treatment (D0).

in vivo [6] = assay type: in vivo, rat; settings: Sprague Dawley, rat, liver, oral; male rats, one dose per day on D0, D+1, D+2; D+3 (day following the last dose); read-out: hepatic persistence (concentration in the liver)
Procedure: (§2) Counting from D0 and for three days (D0, D+1 and D+2), trans-difenacoum in an amount of 0.6 mg/kg, 1.2 mg/kg or 2.6 mg/kg (mg of trans-difenacoum per kilogram of male rat) is administered daily to “Sprague Dawley” male rats weighing between 180 and 220 g. On D+3, the coagulation time of these male rats is measured and the concentration of trans-difenacoum in the liver of these male rats (expressed in μg of trans-difenacoum per g of liver) is analysed.

Sprague Dawley male rats [7] = assay: in vivo; assay type: in vivo, rat
Procedure: as §2

in vivo [8] = assay type: in vivo, rat; settings: Sprague Dawley, liver, oral, female rats
Procedure: (§3) Counting from D0 and for three days (D0, D+1 and D+2), trans-difenacoum in an amount of 0.3 mg/kg; 0.6 mg/kg; 0.75 mg/kg; 1.2 mg/kg or 2.6 mg/kg (mg of trans-difenacoum per kilogram of female rat) is administered to female “Sprague Dawley” rats in an amount of one dose per day. On D+4, the coagulation time of these female rats is measured and the concentration of trans-difenacoum in the liver (expressed in μg of difenacoum per g of liver) of these female rats is analysed. The administration for three days (D0, D+1 and D+2) in an amount of a dose of trans-difenacoum greater than 0.3 mg/kg/day to female rats achieves at D+4 a high value of the coagulation time (greater than or equal to 500 seconds) in these female rats and a moderate hepatic persistence of less than 10 μg of trans-difenacoum per gram of liver for a dose of less than 2.6 mg/kg.

[9] = test system: female Sprague Dawley rats; assay: in vivo; assay type: in vivo, rat
Procedure: as §3

[10] = 2.6 mg/kg per os on D0, D+1, untreated 10 to 20 seconds

With `O=c1oc2ccccc2c(O)c1C1CC(c2ccc(-c3ccccc3)cc2)Cc2ccccc21` (stereo not drawn) [trans-difenacoum, 3-(biphenyl-4-yl)-1-(4-hydroxycoumarin-3-yl)-1,2,3,4-tetrahydronaphthalene] the Hepatic content ([1]; D + 1) was 4.22 µg/g, the Hepatic content ([1]; D + 3) was 1.05 µg/g and the Hepatic content ([1]; D + 5) was 0.25 µg/g. For the same compound, the Hepatic content ([1]; D + 10) was 0.1 µg/g, the Hepatic content ([1]; D + 21) was 0.17 µg/g and the “coagulation time (Quick time)” value (Sprague Dawley male rats [2]; [10]) was 62 s. For the same compound, the “coagulation time (Quick time)” value (Sprague Dawley male rats [2]; 5.2 mg/kg per os on D0, D+1) was 84 s, the Ki [3] was 30 nM and the concentration at 1 day (in vivo [4]; Sprague Dawley, rat, liver, oral, 5.2 mg/kg, D+1, read-out: hepatic concentration) was ~1000 ng/g. For the same compound, the hepatic concentration (in vivo [4]) was “almost undetectable”, the “concentration in the liver, female rats in comparison with male rats” value ([5]; D+3) was “greater in the female rats” and the “concentration in the liver” value ([5]; female rats) was 3.3 μg/g of liver. The “kinetics of the hepatic elimination, female rats versus male rats” value ([5]; in particular during the first 3 days) was “slower in the female rats than in the male rats”, the “concentration in the liver” value ([5]; male rats) was 0.9 μg/g of liver and the concentration at 3 day (in vivo [6]) was ~2000 ng/g. For the same compound, the “amount contained in a rat corpse” value (Sprague Dawley male rats [7]; considering that the liver contains half the ingested trans-difenacoum) was “about 40 μg”, the “coagulability of the blood (increase in Quick time)” value (Sprague Dawley male rats [7]; male rat, dosage of 1.2 mg/kg or higher, three daily doses) was “uncoagulable” and the “global amount per liver” value (Sprague Dawley male rats [7]; male rat, liver mass taken as of the order of 10 g) was 20 µg. For the same compound, the Quick time (Sprague Dawley male rats [7]; male rats, 0.6, 1.2 or 2.6 mg/kg one dose per day on D0, D+1, D+2, D+3) was “massive increase”, the concentration at 4 day (in vivo [8]; 2.6 mg/kg per day, 2.6 mg per day and per kilogram of rat for 3 days, read-out: hepatic concentration) was ~12000 ng/g and the concentration at 4 day (in vivo [8]; rat, three daily doses of less than 2.6 mg/kg, D+4, read-out: hepatic persistence) was < 10000 ng/g. For the same compound, the “coagulability of the blood (increase in coagulation time)” value ([9]; dosage of 0.6 mg/kg or higher, three daily doses) was “uncoagulable” and the coagulation time ([9]; dose greater than 0.3 mg/kg/day on D0, D+1, D+2, D+4) was “greater than or equal to 500 seconds”.
With `O=c1oc2ccccc2c(O)c1C1CC(c2ccc(-c3ccccc3)cc2)Cc2ccccc21` (stereo not drawn) [cis-difenacoum, 3-(biphenyl-4-yl)-1-(4-hydroxycoumarin-3-yl)-1,2,3,4-tetrahydronaphthalene, reference compound] the Hepatic content ([1]; D + 1, listed as cis) was 16.82 µg/g, the Hepatic content ([1]; D + 3, listed as cis) was 8.28 µg/g and the Hepatic content ([1]; D + 5, listed as cis) was 4.86 µg/g. For the same compound, the Hepatic content ([1]; D + 10, listed as cis) was 1.85 µg/g, the Hepatic content ([1]; D + 21, listed as cis) was 1.41 µg/g and the “coagulation time (Quick time)” value (Sprague Dawley male rats [2]; [10]) was 62 s. The Ki [3] was 60 nM, the hepatic concentration (in vivo [4]) was 4 µg/g and the “concentration in the liver” value ([5]; female rats) was 9.6 μg/g of liver. For the same compound, the “concentration in the liver” value ([5]; male rats) was 7.3 μg/g of liver.
